Series [1] concerns the target Protein kinase C alpha type (Homo sapiens) (UniProt P17252). Put plainly: Inhibition of membrane translocation of PKCalpha expressed in HEK293 cells assessed as increase of protein found in membrane fraction at 100 uM after 2 hrs by Western blotting relative to resveratrol. It counts as cell-based. Further details: scale not given: the % may be the effect or the level left.

Series [2] has the same target. The series is described as follows: Inhibition of TPA-induced membrane translocation of PKCalpha expressed in HEK293 cells assessed as protein found in membrane fraction at 100 uM after 2 hrs by Western blotting relative to TPA. It counts as cell-based. More on the design: scale not given: the % may be the effect or the level left. Background: In western blotting, separated proteins are transferred to a membrane and probed.

The target is the same in series [3]. The series is described as follows: Binding affinity to recombinant C1B domain of PKCalpha expressed in Escherichia coli BL21 (DE3) after 45 mins by fluorescence quenching assay.
Series [4] concerns HEK293. Put plainly: Cytotoxicity against HEK293 cells assessed as increase in cell viability at 100 uM after 48 hrs by MTT assay relative to resveratrol. It counts as cell-based. To be noted: human, hek293, 48 h. (Tetrazolium dyes change colour on reduction, which living cells bring about.)
For series [5], the target named is Protein kinase C alpha type (Homo sapiens) (UniProt P17252). Put plainly: Inhibition of membrane translocation of PKCalpha expressed in HEK293 cells at 100 uM after 2 hrs by Western blotting. It counts as cell-based.
For series [6], the system named is HEK293. Put plainly: Cytotoxicity against HEK293 cells assessed as decrease in cell viability at 100 uM after 48 hrs by MTT assay relative to control. To be noted: human, hek293, 48 h. The class given is cell-based.

Molecules are shown by their SMILES. Activity calls are given as the source filed them. No cut-off for these calls is given here.

One may read the inhibition as the relative decrease from the control value, in per cent.

On to `CCCCCCCCCCCCCCCCOc1ccc(/C=C/c2cc(O)cc(O)c2)cc1`, for which the values for the Activity in series [1] and in series [2] were 20% and 79.8%, respectively. Moreover, in series [3], the outcome was Active. For the same molecule, the “fold change (FC)” value in the series with HEK293 [4] was 2.

In the case of `CCCCCCCCCCCCCCCCOc1c(O)cc(/C=C/c2cc(O)c(O)c(O)c2)cc1O`, the Activity is 20% in series [1], 68.3% in series [2] and 25% with HEK293 [4].

As to `CCCCCCCCOc1ccc(/C=C/c2cc(O)cc(O)c2)cc1`, the values for the Activity in series [1] and in series [2] were 20% and 85.2%, respectively. The “fold change (FC)” value in the series on HEK293 [4] is 4.

Regarding `COc1cc(/C=C/c2cc(OC)c(OC)c(OC)c2)cc(OC)c1OC`, the Activity was 20% in series [1] and 44.8% in series [2]. Further, in the series with HEK293 [4], the “fold change (FC)” value is given as 2.

In the case of `CCCCCCCCCCCCCCCCOc1cc(/C=C/c2ccc(O)cc2)cc(OCCCCCCCCCCCCCCCC)c1`, the Activity in series [1] worked out at 20%; in series [2], 78.8%. Besides, the “fold change (FC)” value with HEK293 [4] turned out to be 2.

As for `COc1ccc(/C=C/c2cc(OC)cc(OC)c2)cc1` [TRISMETHOXYRESVERATROL], the results for the Activity in series [1] and in series [2] were 20% and 31.9%, respectively. For the same molecule, the result in series [3] was Active. The “fold change (FC)” value with HEK293 [4] was found to be 4.

As for `CCCCCCCCOc1cc(/C=C/c2ccc(O)cc2)cc(OCCCCCCCC)c1`, the Activity in series [1] turned out to be 20%; in series [2] it was 65.7%. Also, in the series with HEK293 [4], the “fold change (FC)” value is 4.

On to `Oc1cc(/C=C/c2cc(O)c(O)c(O)c2)cc(O)c1O`, for which the Activity in series [1] turned out to be 20%; in series [2], 29.8%; in the series with HEK293 [4], 25%. Besides, in series [3], the result was Active.

With `Oc1ccc(/C=C/c2cc(O)cc(O)c2)cc1` [RESVERATROL], the results for the Activity (in series [2]; in the series with HEK293 [6]) were 60% and 20%, respectively. Besides, the inhibition in series [5] was found to be 5%. In addition, in series [3], the outcome was Active.

For the origin of these results see ChEMBL document CHEMBL1817580, “Chemical modifications of resveratrol for improved protein kinase C alpha activity” (Bioorg Med Chem, 2011).
